Measurements: US20220033405A1, “PHARMACEUTICAL COMPOSITION FOR PREVENTING OR TREATING CANCER CONTAINING PLK1 INHIBITOR AS ACTIVE INGREDIENT” (NATIONAL CANCER CENTER, priority 2018, published 2022)

Experiments:
liver cancer cell lines = experiment: Mixed treatment of Compound 2 (M2) and BI2536; format: cell-based; conditions: mixture of Compound 2 (M2) at a low concentration and BI2536
MDA-MB-468 cells = experiment: Cancer cell growth inhibition (DAPI nuclei count), breast cancer line; format: cell-based; conditions: treated 1 and 3 days after attachment
Experimental: For this purpose, experiments were performed using liver cancer, breast cancer, hematologic cancer, cervical cancer, and prostate cancer cell lines, a murine liver cancer cell line HEPA 1-6 and a breast cancer cell line MDA-MB-468 were cultured in a DMEM medium supplemented with 10% fetal bovine serum (FBS) and 1% penicillin/streptomycin, the other cell lines were cultured in a RPMI1640 medium supplemented with the same additives, and the cell lines were used in the experiment.
To examine the ability of the compound to inhibit the growth of the breast cancer cell line, the compounds was treated at each indicated μM concentration 1 and 3 days after cell attachment, and the control was treated with a 0.1% solvent (DMSO). […] After the cells were additionally rinsed once with PBS, cells stained with DAPI were photographed by Cytation 3, and the resulting images were analyzed with Gen5 software (Biotek, USA). Meanwhile, cells that grew in a floating manner without being attached to the culture plate were treated with a 4% paraformaldehyde solution, reacted at room temperature for 10 minutes to fix the cells, and then photographed in a bright field by Cytation3, and the resulting images were analyzed by Gen5 software (Biotek, USA). […]

SNU-449 = experiment: Cell cycle by flow cytometry, phospho-histone H3 (Ser10) staining; format: cell-based; conditions: M2 20, 40, 80 μM, BI2536 20 nM
Experimental: Flow cytometry equipment was used to confirm the effect on the cell cycle in the case of treatment with Compound 2 (M2). SNU-449, which is one of the liver cancer cell lines, were treated with Compound 2 (M2) at each of concentrations of 20, 40, and 80 μM after 1 day and 3 days, and were harvested after another 2 days.
Furthermore, it was intended to more specifically stain a cell population that stopped in the metaphase of cell division using a phospho-histone H3 (Ser10) antibody capable of specifically staining only the cells that stopped in the metaphase of cell division. As a positive control, cells were treated with BI2536 known as a PLK1 kinase inhibitor at 20 nM and used to observe cells in the metaphase of cell division and an increase in the G2/M phase.

[1] = test system: HepG2 orthotopic xenograft; experiment: Liver cancer orthotopic xenograft model (HepG2), 5 and 20 mg/kg; format: in vivo, BalB/c nude mice; conditions: M2 5 and 20 mg/kg i.p. once every two days, 10 treatments for 3 weeks
Experimental: Another experiment was performed on the same liver cancer cell line by varying the experimental method. 5×10^6 HepG2 cells were injected into the backs of BalB/c nude mice, and when a sufficient cancer tissue was formed about 3 weeks later, the tissue was removed, uniformly cut into 1 mm^3, and transplanted into the right median lobe of the liver by excising the abdomen within 1 cm.
Small spots were confirmed on the MRI image about 10 days after transplanting the liver cancer tissue into 20 BalB/C nude mice by the above method, so that rodents with well-established liver cancer were divided into 3 groups (about 50 to 60%) (see FIG. 21A), a control and a hit (M2) material at 5 mg/kg and 20 mg/kg were injected into the abdominal cavity once every two days using less than 1.5% DMSO as a solvent (vehicle), and once a week, MRI images were used to select (follow up) rodents with constant tissue growth. Then, in a state in which the rapidly growing cancer tissue was 1 cm or less, the cancer tissue was observed after sacrificing the mice (10 treatments for 3 weeks).

Compound: Cn1c2nc(=O)[nH]c(=O)c-2nc2ccccc21 [Compound 2, 10-methyl-2H,3H,4H,10H-benzo[g]pteridine-2,4-dione]
- inhibition of cancer cells by mixed treatment (liver cancer cell lines): the cooperative ability of BI2536 to inhibit cancer cells could be observed
- number of cells (MDA-MB-468 cells): the number of cells was remarkably reduced in proportion to the treatment concentration
- proportion of polyploid cells (SNU-449): not increased at all the treated concentrations
- proportion of phospho-histone H3-positive cells (SNU-449; compared to CT): decreased
- volume of the cancer tissue [1]: reduced remarkably as the dose of M2 was increased
- weight of the cancer tissue [1]: reduced remarkably as the dose of M2 was increased
